The source made the active and inactive calls. No cut-off for these calls is given here.
Target: 5-hydroxytryptamine receptor 2A (Rattus norvegicus, UniProt P14842)
Assay: Displacement of [3H]ketanserin from 5HT2A in Wistar rat frontal cortex membranes after 1 hr by liquid scintillation spectrometry
Type: cell membranes, Membrane
Conditions: not given

Sequence of 5-hydroxytryptamine receptor 2A (Rattus norvegicus, UniProt P14842) (P14842 whole entry): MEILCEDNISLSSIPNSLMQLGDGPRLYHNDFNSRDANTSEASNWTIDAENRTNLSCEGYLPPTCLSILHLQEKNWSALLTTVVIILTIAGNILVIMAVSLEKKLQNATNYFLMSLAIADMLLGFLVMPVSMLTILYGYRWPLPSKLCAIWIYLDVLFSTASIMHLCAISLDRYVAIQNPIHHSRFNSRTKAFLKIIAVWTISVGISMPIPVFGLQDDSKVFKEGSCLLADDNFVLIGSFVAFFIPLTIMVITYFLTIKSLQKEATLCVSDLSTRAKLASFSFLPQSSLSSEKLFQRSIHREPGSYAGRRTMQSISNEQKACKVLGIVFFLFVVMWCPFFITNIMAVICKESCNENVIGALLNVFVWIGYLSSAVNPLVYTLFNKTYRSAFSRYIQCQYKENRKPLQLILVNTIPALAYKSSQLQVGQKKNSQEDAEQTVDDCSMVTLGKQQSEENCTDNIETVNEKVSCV

SMILES | Ki
Cc1cc2c(cc1Cl)N(C(=O)Nc1ccc(Oc3cccnc3C)nc1)CC2 [SB-242084] | 274 nM
CN(C)CCC(Oc1ccc(NC(=O)Nc2ccc3c(ccn3C)c2)cc1)c1ccccc1 (configuration not stated) | 239 nM
CN(C)CCN(Cc1ccccc1)S(=O)(=O)c1ccc(NC(=O)Nc2ccc3c(ccn3C)c2)cc1 | 58.4 nM
COc1ccc(NC(=O)Nc2ccc(OC(CCN(C)C)c3ccccc3)cc2)cc1Cl (configuration not stated) | 233 nM
CN(C)CCN(Cc1ccccc1)S(=O)(=O)c1ccc(I)cc1 | 3 nM
CN(C)CCN(Cc1ccccc1)S(=O)(=O)c1ccc(N2CCN(c3cccc(Cl)c3)CC2)cc1 | 9.9 nM
Cc1cc2c(cc1Cl)N(C(=O)Nc1ccc(OC(CCN(C)C)c3ccccc3)cc1)CC2 (configuration not stated) | 138 nM

Test system: Liver microsome
Assay: Intrinsic clearance in human liver microsomes at 2.5 uM
Type: ADME
Conditions: not given

SMILES | CLH
CN(C)CCC(Oc1ccc(NC(=O)Nc2ccc3c(ccn3C)c2)cc1)c1ccccc1 (configuration not stated) | 2.66 mL/min/g
CN(C)CCN(Cc1ccccc1)S(=O)(=O)c1ccc(NC(=O)Nc2ccc3c(ccn3C)c2)cc1 | 3.94 mL/min/g
COc1ccc(NC(=O)Nc2ccc(OC(CCN(C)C)c3ccccc3)cc2)cc1Cl (configuration not stated) | 0.68 mL/min/g
CN(C)CCN(Cc1ccccc1)S(=O)(=O)c1ccc(I)cc1 | 1.36 mL/min/g
CN(C)CCN(Cc1ccccc1)S(=O)(=O)c1ccc(N2CCN(c3cccc(Cl)c3)CC2)cc1 | 1.43 mL/min/g
Cc1cc2c(cc1Cl)N(C(=O)Nc1ccc(OC(CCN(C)C)c3ccccc3)cc1)CC2 (configuration not stated) | 0.06 mL/min/g

Target: T1, 5-hydroxytryptamine receptor 2A (Homo sapiens, UniProt P28223)
Assay: Antagonist activity at human 5-HT2A receptor expressed in CHO-K1 cells assessed as inhibition of 5HT-induced Ca2+ release at 10 uM by fluorometry assay
Type: functional, cell-based
Conditions: not given

T1 sequence (P28223 whole entry): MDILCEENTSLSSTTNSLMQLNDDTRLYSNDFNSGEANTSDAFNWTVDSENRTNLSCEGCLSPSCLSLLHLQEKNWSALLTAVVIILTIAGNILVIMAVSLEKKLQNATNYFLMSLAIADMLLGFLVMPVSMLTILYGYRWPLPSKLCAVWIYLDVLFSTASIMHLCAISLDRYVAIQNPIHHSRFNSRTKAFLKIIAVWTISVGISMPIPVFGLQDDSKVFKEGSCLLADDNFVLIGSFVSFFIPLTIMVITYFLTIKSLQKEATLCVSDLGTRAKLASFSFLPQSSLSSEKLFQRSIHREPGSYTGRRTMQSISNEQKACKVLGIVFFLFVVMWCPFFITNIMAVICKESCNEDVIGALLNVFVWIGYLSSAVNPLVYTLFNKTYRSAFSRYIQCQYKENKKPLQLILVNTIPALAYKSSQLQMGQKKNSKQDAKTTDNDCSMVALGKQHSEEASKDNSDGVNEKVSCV

SMILES | inhibition
CN(C)CCN(Cc1ccccc1)S(=O)(=O)c1ccc(NC(=O)Nc2ccc3c(ccn3C)c2)cc1 | Active
CN(C)CCN(Cc1ccccc1)S(=O)(=O)c1ccc(N2CCN(c3cccc(Cl)c3)CC2)cc1 | Active

Target: T2, 5-hydroxytryptamine receptor 2C (Homo sapiens, UniProt P28335)
T2 sequence (P28335 whole entry): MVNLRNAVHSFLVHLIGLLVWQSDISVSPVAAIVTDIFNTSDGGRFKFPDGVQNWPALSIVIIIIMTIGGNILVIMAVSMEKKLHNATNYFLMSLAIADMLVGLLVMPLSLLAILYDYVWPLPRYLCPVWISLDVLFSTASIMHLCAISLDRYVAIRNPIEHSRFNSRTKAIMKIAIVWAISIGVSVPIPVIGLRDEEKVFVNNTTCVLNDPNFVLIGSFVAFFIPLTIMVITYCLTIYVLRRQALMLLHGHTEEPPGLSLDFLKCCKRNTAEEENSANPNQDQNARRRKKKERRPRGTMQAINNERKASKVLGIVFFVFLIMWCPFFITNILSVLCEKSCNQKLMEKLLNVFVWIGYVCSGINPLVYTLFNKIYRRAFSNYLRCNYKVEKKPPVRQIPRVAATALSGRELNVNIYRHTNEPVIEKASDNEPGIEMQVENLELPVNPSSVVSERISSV
Assay: Binding affinity to 5HT2C (unknown origin)
Conditions: not given

SMILES | Ki
CN(C)CCN(Cc1ccccc1)S(=O)(=O)c1ccc(I)cc1 | 8 nM

Test system: Mus musculus
Assay: Inhibition of mCPP-induced hypomotility in NMRI mouse assessed as reductiion in vertical hypoactivity at 20 to 40 mg/kg, ip up to 60 mins
Type: functional, organism-based
Conditions: not given

SMILES | Activity
CN(C)CCN(Cc1ccccc1)S(=O)(=O)c1ccc(NC(=O)Nc2ccc3c(ccn3C)c2)cc1 | inactive

Test system: Mus musculus
Assay: Induction of motor depression in C57BL/6J mouse assessed as total duration of immobility was measured over a period of 6 mins at 20 to 80 mg/kg, ip by tail suspension test
Type: organism-based
Conditions: in vivo, 0.1 h

SMILES | Activity
CN(C)CCN(Cc1ccccc1)S(=O)(=O)c1ccc(NC(=O)Nc2ccc3c(ccn3C)c2)cc1 | Toxic

Test system: Mus musculus
Assay: Induction of motor depression in C57BL/6J mouse assessed as total duration of immobility was measured over a period of 6 mins at 25 to 100 mg/kg, ip by tail suspension test
Type: organism-based
Conditions: in vivo, 0.1 h

SMILES | Activity
CN(C)CCN(Cc1ccccc1)S(=O)(=O)c1ccc(N2CCN(c3cccc(Cl)c3)CC2)cc1 | Toxic

Test system: Mus musculus
Assay: Inhibition of mCPP-induced hypomotility in NMRI mouse assessed as reductiion in vertical hypoactivity at 40 to 80 mg/kg, ip up to 60 mins
Type: functional, organism-based
Conditions: not given

SMILES | Activity
CN(C)CCN(Cc1ccccc1)S(=O)(=O)c1ccc(N2CCN(c3cccc(Cl)c3)CC2)cc1 | inactive

Test system: not listed separately
Assay: Efflux ratio of the compound from apical to basolateral side to basolateral to apical side in human vinblastine-treated Caco2 cells
Type: ADME, cell-based
Conditions: caco-2

SMILES | Ratio
CN(C)CCC(Oc1ccc(NC(=O)Nc2ccc3c(ccn3C)c2)cc1)c1ccccc1 (configuration not stated) | 5.3
CN(C)CCN(Cc1ccccc1)S(=O)(=O)c1ccc(NC(=O)Nc2ccc3c(ccn3C)c2)cc1 | 2.2
COc1ccc(NC(=O)Nc2ccc(OC(CCN(C)C)c3ccccc3)cc2)cc1Cl (configuration not stated) | 2.2

Target: 5-hydroxytryptamine receptor 1A (Homo sapiens) (UniProt P08908)
Assay: Displacement of [3H]-8-OH-DPAT from human 5HT1A receptor at 1 uM
Conditions: not given

Sequence of 5-hydroxytryptamine receptor 1A (Homo sapiens) (P08908 whole entry, looked up): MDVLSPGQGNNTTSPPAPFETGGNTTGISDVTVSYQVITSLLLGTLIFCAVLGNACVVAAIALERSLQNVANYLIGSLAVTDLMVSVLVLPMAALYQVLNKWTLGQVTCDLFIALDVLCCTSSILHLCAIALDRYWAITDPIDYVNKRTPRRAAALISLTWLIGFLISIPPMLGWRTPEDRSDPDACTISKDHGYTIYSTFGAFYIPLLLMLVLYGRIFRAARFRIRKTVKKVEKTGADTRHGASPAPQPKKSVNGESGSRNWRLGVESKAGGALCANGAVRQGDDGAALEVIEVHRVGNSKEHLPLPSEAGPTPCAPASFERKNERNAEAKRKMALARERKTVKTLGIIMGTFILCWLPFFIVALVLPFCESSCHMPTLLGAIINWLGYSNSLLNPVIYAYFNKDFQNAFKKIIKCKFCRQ

SMILES | inhibition
CN(C)CCN(Cc1ccccc1)S(=O)(=O)c1ccc(NC(=O)Nc2ccc3c(ccn3C)c2)cc1 | -4%
COc1ccc(NC(=O)Nc2ccc(OC(CCN(C)C)c3ccccc3)cc2)cc1Cl (configuration not stated) | -4%
CN(C)CCN(Cc1ccccc1)S(=O)(=O)c1ccc(N2CCN(c3cccc(Cl)c3)CC2)cc1 | -7%

Target: Sodium-dependent serotonin transporter (Rattus norvegicus, UniProt P31652)
Assay: Displacement of [3H]citalopram from SERT in Sprague-Dawley rat whole brain membranes after 1 hr by liquid scintillation spectrometry
Type: tissue-based, Membrane
Conditions: not given

Sequence of Sodium-dependent serotonin transporter (Rattus norvegicus, UniProt P31652) (P31652 whole entry): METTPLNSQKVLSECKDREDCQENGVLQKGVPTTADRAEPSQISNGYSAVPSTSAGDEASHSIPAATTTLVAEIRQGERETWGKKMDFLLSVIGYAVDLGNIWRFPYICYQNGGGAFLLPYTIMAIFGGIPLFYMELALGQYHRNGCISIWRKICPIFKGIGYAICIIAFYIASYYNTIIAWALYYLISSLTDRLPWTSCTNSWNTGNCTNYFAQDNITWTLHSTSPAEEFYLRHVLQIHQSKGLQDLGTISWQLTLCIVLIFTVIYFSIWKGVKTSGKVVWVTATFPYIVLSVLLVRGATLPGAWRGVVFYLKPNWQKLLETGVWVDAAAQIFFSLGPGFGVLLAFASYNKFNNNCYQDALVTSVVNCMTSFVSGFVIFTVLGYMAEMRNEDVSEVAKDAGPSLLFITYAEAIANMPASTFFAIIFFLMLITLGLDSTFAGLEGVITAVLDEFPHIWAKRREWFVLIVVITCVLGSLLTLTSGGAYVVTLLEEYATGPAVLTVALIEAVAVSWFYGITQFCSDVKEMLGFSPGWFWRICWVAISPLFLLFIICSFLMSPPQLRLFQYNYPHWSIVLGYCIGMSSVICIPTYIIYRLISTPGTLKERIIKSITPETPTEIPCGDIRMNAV

SMILES | Ki
CN(C)CCN(Cc1ccccc1)S(=O)(=O)c1cccc(N2CCN(c3cccc(Cl)c3)CC2)c1 | 509 nM
Cc1cc2c(cc1Cl)N(C(=O)Nc1ccc(Oc3cccnc3C)nc1)CC2 [SB-242084] | 1770 nM
CN(C)CCN(Cc1ccccc1)S(=O)(=O)c1ccc(NC(=O)Nc2ccc3c(ccn3C)c2)cc1 | 26.2 nM
CN(C)CCN(Cc1ccccc1)S(=O)(=O)c1ccc(I)cc1 | 20.4 nM
CN(C)CCN(Cc1ccccc1)S(=O)(=O)c1ccc(N2CCN(c3cccc(Cl)c3)CC2)cc1 | 29.7 nM
Cc1cc2c(cc1Cl)N(C(=O)Nc1ccc(OC(CCN(C)C)c3ccccc3)cc1)CC2 (configuration not stated) | 65.5 nM

Target: T1, 5-hydroxytryptamine receptor 2A
Assay: Binding affinity to 5HT2A (unknown origin)
Conditions: not given

SMILES | Ki
CN(C)CCN(Cc1ccccc1)S(=O)(=O)c1ccc(I)cc1 | 1.8 nM

Test system: not listed separately
Assay: Apparent permeability of the compound from apical to basolateral side in human vinblastine-treated Caco2 cells
Type: ADME, cell-based
Conditions: caco-2

SMILES | Papp A→B
CN(C)CCN(Cc1ccccc1)S(=O)(=O)c1ccc(NC(=O)Nc2ccc3c(ccn3C)c2)cc1 | 8.6 ×10⁻⁶ cm/s

Target: Sodium-dependent serotonin transporter (Homo sapiens, UniProt P31645)
Assay: Binding affinity to SERT (unknown origin)
Conditions: not given

Sequence of Sodium-dependent serotonin transporter (Homo sapiens, UniProt P31645) (P31645 whole entry): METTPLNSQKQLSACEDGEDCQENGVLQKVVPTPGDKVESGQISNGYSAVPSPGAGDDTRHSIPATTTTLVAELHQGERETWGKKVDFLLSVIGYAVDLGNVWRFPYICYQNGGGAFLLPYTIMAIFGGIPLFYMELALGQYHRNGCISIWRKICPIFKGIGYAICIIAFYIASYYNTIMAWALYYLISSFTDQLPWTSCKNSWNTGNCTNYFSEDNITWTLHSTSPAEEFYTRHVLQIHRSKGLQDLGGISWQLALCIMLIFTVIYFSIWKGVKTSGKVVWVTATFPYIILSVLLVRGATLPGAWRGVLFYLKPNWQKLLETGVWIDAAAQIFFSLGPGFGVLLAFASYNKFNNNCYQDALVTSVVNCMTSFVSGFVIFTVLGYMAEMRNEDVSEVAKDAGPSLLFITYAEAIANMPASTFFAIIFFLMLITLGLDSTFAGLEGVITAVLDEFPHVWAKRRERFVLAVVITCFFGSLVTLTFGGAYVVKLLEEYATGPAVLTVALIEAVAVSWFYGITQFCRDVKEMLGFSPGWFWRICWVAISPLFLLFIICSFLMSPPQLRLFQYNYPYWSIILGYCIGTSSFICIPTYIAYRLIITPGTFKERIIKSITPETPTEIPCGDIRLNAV

SMILES | Ki
CN(C)CCN(Cc1ccccc1)S(=O)(=O)c1ccc(I)cc1 | 30.4 nM

Test system: Mus musculus
Assay: Potentiation of mCPP-induced hypomotility in NMRI mouse at 20 to 40 mg/kg, ip up to 60 mins
Type: ADME, organism-based
Conditions: in vivo, 1 h

SMILES | Activity
CN(C)CCN(Cc1ccccc1)S(=O)(=O)c1ccc(NC(=O)Nc2ccc3c(ccn3C)c2)cc1 | Toxic

Test system: Mus musculus
Assay: Effect on spontaneous rearing behavior in NMRI mouse at 5 to 80 mg/kg, ip
Type: ADME, organism-based
Conditions: in vivo

SMILES | Activity
CN(C)CCN(Cc1ccccc1)S(=O)(=O)c1ccc(N2CCN(c3cccc(Cl)c3)CC2)cc1 | Toxic

Target: 5-hydroxytryptamine receptor 2B (Homo sapiens) (UniProt P41595)
Assay: Displacement of [3H]-LSD from human 5HT2B receptor at 1 uM
Conditions: not given

Sequence of 5-hydroxytryptamine receptor 2B (Homo sapiens) (P41595 whole entry): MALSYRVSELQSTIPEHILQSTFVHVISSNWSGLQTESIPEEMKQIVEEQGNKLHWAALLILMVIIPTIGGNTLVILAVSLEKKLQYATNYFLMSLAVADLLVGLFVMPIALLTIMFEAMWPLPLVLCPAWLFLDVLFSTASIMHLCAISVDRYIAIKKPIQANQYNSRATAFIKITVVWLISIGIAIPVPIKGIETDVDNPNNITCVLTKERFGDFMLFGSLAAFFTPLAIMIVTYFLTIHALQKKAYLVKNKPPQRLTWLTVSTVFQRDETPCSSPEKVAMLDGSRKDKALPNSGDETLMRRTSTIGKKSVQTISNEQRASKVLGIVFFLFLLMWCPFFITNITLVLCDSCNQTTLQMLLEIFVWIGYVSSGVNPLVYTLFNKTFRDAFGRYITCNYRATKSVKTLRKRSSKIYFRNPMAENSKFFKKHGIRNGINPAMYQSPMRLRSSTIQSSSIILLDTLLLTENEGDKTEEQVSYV

SMILES | inhibition
CN(C)CCN(Cc1ccccc1)S(=O)(=O)c1ccc(NC(=O)Nc2ccc3c(ccn3C)c2)cc1 | 86%
COc1ccc(NC(=O)Nc2ccc(OC(CCN(C)C)c3ccccc3)cc2)cc1Cl (configuration not stated) | 87%
CN(C)CCN(Cc1ccccc1)S(=O)(=O)c1ccc(N2CCN(c3cccc(Cl)c3)CC2)cc1 | 82%

Test system: Mus musculus
Assay: Inhibition of mCPP-induced hypomotility in ip dosed NMRI mouse assessed as rearing count up to 60 mins
Type: functional
Conditions: 1 h

SMILES | ED50
COc1ccc(NC(=O)Nc2ccc(OC(CCN(C)C)c3ccccc3)cc2)cc1Cl (configuration not stated) | 13.5 mg/kg
Cc1cc2c(cc1Cl)N(C(=O)Nc1ccc(OC(CCN(C)C)c3ccccc3)cc1)CC2 (configuration not stated) | 17.9 mg/kg

Test system: Mus musculus
Assay: Inhibition of hypomotility in NMRI mouse assessed as reduction in rearing at 20 mg/kg, ip in presence of 0.1 to 1 mg/kg, sc selective 5-HT2C antagonist SB-242084
Type: functional, organism-based
Conditions: not given

SMILES | Activity
CN(C)CCN(Cc1ccccc1)S(=O)(=O)c1ccc(N2CCN(c3cccc(Cl)c3)CC2)cc1 | inactive

Target: T3, 5-hydroxytryptamine receptor 2C (Homo sapiens) (UniProt P28335)
T3 sequence (whole entry): T2 sequence (P28335 whole entry)
Assay: Antagonist activity at human 5-HT2C receptor expressed in CHO-K1 cells assessed as inhibition of 5HT-induced Ca2+ release at 10 uM by fluorometry assay
Type: functional, cell-based
Conditions: not given

SMILES | inhibition
CN(C)CCN(Cc1ccccc1)S(=O)(=O)c1ccc(NC(=O)Nc2ccc3c(ccn3C)c2)cc1 | Active
CN(C)CCN(Cc1ccccc1)S(=O)(=O)c1ccc(N2CCN(c3cccc(Cl)c3)CC2)cc1 | Active

Target: T4, 5-hydroxytryptamine receptor 2C (Rattus norvegicus, UniProt P08909)
T4 sequence (P08909 whole entry): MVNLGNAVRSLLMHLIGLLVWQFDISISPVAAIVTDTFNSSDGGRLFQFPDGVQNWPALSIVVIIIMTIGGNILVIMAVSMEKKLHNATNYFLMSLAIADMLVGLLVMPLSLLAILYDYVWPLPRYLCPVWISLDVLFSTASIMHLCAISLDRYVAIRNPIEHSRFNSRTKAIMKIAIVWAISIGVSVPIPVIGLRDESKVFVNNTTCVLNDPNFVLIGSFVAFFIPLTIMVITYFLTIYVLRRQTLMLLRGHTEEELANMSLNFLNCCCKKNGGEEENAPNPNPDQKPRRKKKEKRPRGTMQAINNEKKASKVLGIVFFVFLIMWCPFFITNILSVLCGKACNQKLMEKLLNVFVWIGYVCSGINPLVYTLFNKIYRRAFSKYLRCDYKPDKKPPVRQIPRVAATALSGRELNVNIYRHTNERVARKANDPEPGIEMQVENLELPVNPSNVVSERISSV
Assay: Displacement of [3H]mesulergine from 5HT2C in Sprague-Dawley rat whole brain membranes after 1 hr by liquid scintillation spectrometry
Type: tissue-based, Membrane
Conditions: not given

SMILES | Ki
CN(C)CCN(Cc1ccccc1)S(=O)(=O)c1cccc(N2CCN(c3cccc(Cl)c3)CC2)c1 | 6.1 nM
Cc1cc2c(cc1Cl)N(C(=O)Nc1ccc(Oc3cccnc3C)nc1)CC2 [SB-242084] | 0.16 nM
CN(C)CCN(Cc1ccccc1)S(=O)(=O)c1ccc(NC(=O)Nc2ccc3c(ccn3C)c2)cc1 | 14.5 nM
CN(C)CCN(Cc1ccccc1)S(=O)(=O)c1ccc(I)cc1 | 11.6 nM
CN(C)CCN(Cc1ccccc1)S(=O)(=O)c1ccc(N2CCN(c3cccc(Cl)c3)CC2)cc1 | 8.1 nM
Cc1cc2c(cc1Cl)N(C(=O)Nc1ccc(OC(CCN(C)C)c3ccccc3)cc1)CC2 (configuration not stated) | 0.6 nM

Test system: not listed separately
Assay: Intrinsic clearance in mouse liver microsomes at 2.5 uM
Type: ADME
Conditions: not given

SMILES | CLH
CN(C)CCC(Oc1ccc(NC(=O)Nc2ccc3c(ccn3C)c2)cc1)c1ccccc1 (configuration not stated) | 3.25 mL/min/g
CN(C)CCN(Cc1ccccc1)S(=O)(=O)c1ccc(NC(=O)Nc2ccc3c(ccn3C)c2)cc1 | 1.07 mL/min/g
COc1ccc(NC(=O)Nc2ccc(OC(CCN(C)C)c3ccccc3)cc2)cc1Cl (configuration not stated) | 1.25 mL/min/g
CN(C)CCN(Cc1ccccc1)S(=O)(=O)c1ccc(I)cc1 | 14.19 mL/min/g
CN(C)CCN(Cc1ccccc1)S(=O)(=O)c1ccc(N2CCN(c3cccc(Cl)c3)CC2)cc1 | 1.57 mL/min/g
Cc1cc2c(cc1Cl)N(C(=O)Nc1ccc(OC(CCN(C)C)c3ccccc3)cc1)CC2 (configuration not stated) | 0.9 mL/min/g

Reference: ChEMBL document CHEMBL3751661, “The influence of 5-HT(2A) activity on a 5-HT(2C) specific in vivo assay used for early identification of multiple acting SERT and 5-HT(2C) receptor ligands” (Bioorg Med Chem Lett, 2016)
